What all share (assay type): in vivo
Data set [1] relates to carrageenan-induced paw edema in rats. Put plainly: Anti-inflammatory activity, carrageenan-induced paw edema test. The note with it: for Percent anti-inflammatory activity (percent inhibition of paw edema): mean ± SD (n = 6). The protocol:
(§1) The synthesized compounds were evaluated for analgesic, anti-inflammatory, and ulcerogenic index. […] The test compounds and the standard drugs were administered in the form of a suspension (1% carboxymethyl cellulose as a vehicle) by oral route for analgesic and anti-inflammatory but for ulcerogenicity studies by intraperitoneally as suspension in 10% v/v Tween-20. Each group consisted of six animals. The animals were procured from the C. L. Baid Metha College of pharmacy, Chennai, and were maintained in colony cages at 25 ±2°C, relative humidity of 45-55%, under a 12-h light and dark cycle; they were fed standard animal feed. All the animals were acclimatized for a week before use. The Institutional Animal Ethics Committee approved the protocol adopted for the experimentation of animals.
Anti-inflammatory activity was evaluated by carrageenan-induced paw edema test in rats.[15] Diclofenac sodium 10, 20 mg/kg was administered as a standard drug for comparison. The test compounds were administered at two dose levels (10 mg/kg, 20 mg/kg). The paw volumes were measured using the mercury displacement technique with the help of a plethysmograph (Model PLYAN; Buxco, USA) immediately before and 30 min, 1, 2, and 3 h after carrageenan injection. The percent inhibition of paw edema was calculated using the following formula.
Percent inhibition I = 100 1− (a−x) / (b−y)
Where x is the mean paw volume of rats before the administration of carrageenan and test compounds or reference compound (test group), a is the mean paw volume of rats after the administration of carrageenan in the test group (drug treated), b is the mean paw volume of rats after the administration of carrageenan in the control group, y is the mean paw volume of rats before the administration of carrageenan in the control group.
(In general: The carrageenan paw model is a standard test of acute inflammation.)

In another data set the test system is Wistar albino mice. Put plainly: Analgesic activity, tail-flick technique. The note with it: for Percent analgesic activity: mean ± SD (n = 6); for Analgesic activity (in words): tail-flick, structure-activity comparison within the series / vs diclofenac sodium. As for the experimental part:
as §1
The analgesic activity was performed by tail-flick technique using Wistar albino mice (25-35 g) of either sex selected by the random sampling technique.[1314] Diclofenac sodium at a dose level of 10 mg/kg and 20 mg/kg was administered orally as reference drug for comparison. The test compounds at two dose levels (10, 20 mg/kg) were administered orally. The reaction time was recorded at 30 min, 1, 2, and 3 h after the treatment, and cut-off time was 10 s. The percent analgesic activity (PAA) was calculated by the following formula, where T1 is the reaction time (s) before treatment, and T2 is the reaction time (s) after treatment.

Data set [2] concerns Albino rats of Wistar strain. Put plainly: Evaluation of ulcerogenicity index (pylorus ligation). Also on record: scale not given here. To be noted: test compounds 20 mg/kg intraperitoneally, pylorus ligated on fourth day, mean ± SD (n = 6). The protocol: The synthesized compounds were evaluated for analgesic, anti-inflammatory, and ulcerogenic index. […] The test compounds and the standard drugs were administered in the form of a suspension (1% carboxymethyl cellulose as a vehicle) by oral route for analgesic and anti-inflammatory but for ulcerogenicity studies by intraperitoneally as suspension in 10% v/v Tween-20. Each group consisted of six animals. The animals were procured from the C. L. Baid Metha College of pharmacy, Chennai, and were maintained in colony cages at 25 ±2°C, relative humidity of 45-55%, under a 12-h light and dark cycle; they were fed standard animal feed. All the animals were acclimatized for a week before use. The Institutional Animal Ethics Committee approved the protocol adopted for the experimentation of animals. Ulceration in rats was induced as described by Goyal et al. Albino rats of Wistar strain weighing 150-200 g of either sex were divided into various groups each of six animals.[16] Control group of animals was administered only with 10% v/v Tween 80 suspension intraperitonially. One group was administered with aspirin (German Remedies) intraperitoneally at a dose of 200 mg/kg once daily for 3 days. The remaining group of animals was administered with test compounds intraperitoneally at a dose of 20 mg/kg. On fourth day, Pylorus was ligated as per the method of Shay et al.[17] Animals were fasted for 36 h before the pylorus ligation procedure. Four hours after the ligation, animals were sacrificed. The stomach was removed and opened along with the greater curvature. Ulcer index was determined by the method of Ganguly and Bhatnagar.[18]

Where [3] appears, read: 10 mg/kg oral, 30 min after carrageenan.
[4] abbreviates: 10 mg/kg oral, 1 h after carrageenan.
The mark [5] stands for this setting: 10 mg/kg oral, 2 h after carrageenan.
Where [6] appears, read: 10 mg/kg oral, 3 h after carrageenan.
Setting [7] is: 20 mg/kg oral, 30 min after carrageenan.
Where [8] appears, read: 20 mg/kg oral, 1 h after carrageenan.
The mark [9] stands for this setting: 20 mg/kg oral, 2 h after carrageenan.
The mark [10] stands for this setting: 20 mg/kg oral, 3 h after carrageenan.
[11] abbreviates: 10 mg/kg oral, 30 min after treatment.
Where [12] appears, read: 10 mg/kg oral, 1 h after treatment.
Where [13] appears, read: 10 mg/kg oral, 2 h after treatment.
The mark [14] stands for this setting: 10 mg/kg oral, 3 h after treatment.
[15] abbreviates: 20 mg/kg oral, 30 min after treatment.
Setting [16] is: 20 mg/kg oral, 1 h after treatment.
Where [17] appears, read: 20 mg/kg oral, 2 h after treatment.
Setting [18] is: 20 mg/kg oral, 3 h after treatment.

Structures are written as SMILES. Entries after “also recorded” stand apart in the source; their conditions may differ.

Turning to `O=C1Nc2ccc(F)cc2C1=Nc1ccc(N=Cc2ccccc2)cc1` [Compound N6], the “Percent anti-inflammatory activity (percent inhibition of paw edema)” value in data set [1] (setting [3]) turned out to be 37 ± 1.67 %; in data set [1] (setting [4]), 42 ± 1.42 %; in data set [1] (setting [5]) it was 49 ± 1.58 %; in data set [1] (setting [6]), 36 ± 1.96 %; in data set [1] (setting [7]), 46 ± 1.48 %; in data set [1] (setting [8]) it was 55 ± 1.76 %. For the same compound, the “Percent anti-inflammatory activity (percent inhibition of paw edema)” value in data set [1] (setting [9]) is 59 ± 1.93 %; in data set [1] (setting [10]), 38 ± 1.47 %. In addition, the Percent analgesic activity turned out to be 37 ± 1.87 % in the data set with Wistar albino mice (setting [11]); 46 ± 1.42 % in the data set on Wistar albino mice (setting [12]); 49 ± 1.15 % in the data set with Wistar albino mice (setting [13]); 36 ± 1.96 % in the data set with Wistar albino mice (setting [14]); 49 ± 1.83 % with Wistar albino mice (setting [15]); 54 ± 1.76 % in the data set on Wistar albino mice (setting [16]). Further, the Percent analgesic activity in the data set with Wistar albino mice (setting [17]) was 59 ± 1.18 %; in the data set with Wistar albino mice (setting [18]), 43 ± 1.47 %. Moreover, in the data set with Wistar albino mice, the “Analgesic activity (in words)” value is listed as “decreasing activity”. Besides, in data set [2], the Ulcer index was determined as 0.84 ± 1.78.

For `CCCC(C)=Nc1ccc(N=C2C(=O)Nc3ccc(F)cc32)cc1` [Compound N3], the “Percent anti-inflammatory activity (percent inhibition of paw edema)” value in data set [1] (setting [3]) is listed as 49 ± 1.75 %; in data set [1] (setting [4]) it was 54 ± 1.82 %; in data set [1] (setting [5]) it was 60 ± 1.35 %; in data set [1] (setting [6]), 43 ± 1.96 %; in data set [1] (setting [7]), 54 ± 1.59 %; in data set [1] (setting [8]), 62 ± 1.77 %. Moreover, the “Percent anti-inflammatory activity (percent inhibition of paw edema)” value in data set [1] (setting [9]) turned out to be 66 ± 1.24 %; in data set [1] (setting [10]), 52 ± 1.45 %. Moreover, the “Anti-inflammatory activity compared to reference standard diclofenac sodium (in words)” value in data set [1] (carrageenan-induced paw edema in rats) is given as “moderately more potent”. Moreover, the Percent analgesic activity in the data set on Wistar albino mice (setting [11]) is on record as 55 ± 1.75 %; in the data set on Wistar albino mice (setting [12]), 62 ± 1.82 %; in the data set with Wistar albino mice (setting [13]), 64 ± 1.35 %; in the data set with Wistar albino mice (setting [14]), 46 ± 1.96 %; in the data set on Wistar albino mice (setting [15]), 62 ± 1.59 %; with Wistar albino mice (setting [16]) it was 66 ± 1.77 %. Besides, the Percent analgesic activity in the data set with Wistar albino mice (setting [17]) was determined as 69 ± 1.24 %; in the data set on Wistar albino mice (setting [18]) it was 52 ± 1.45 %. Moreover, in the data set on Wistar albino mice, the “Analgesic activity (in words)” value is “good activity”. The compound also had a Ulcer index in data set [2] of 0.85 ± 1.28.

Regarding `COc1ccc(C=Nc2ccc(N=C3C(=O)Nc4ccc(F)cc43)cc2)cc1` [Compound N7], the “Percent anti-inflammatory activity (percent inhibition of paw edema)” value in data set [1] (setting [3]) is on record as 36 ± 1.74 %; in data set [1] (setting [4]), 42 ± 1.72 %; in data set [1] (setting [5]), 45 ± 1.55 %; in data set [1] (setting [6]), 33 ± 1.69 %; in data set [1] (setting [7]), 44 ± 1.76 %; in data set [1] (setting [8]), 55 ± 1.78 %. The “Percent anti-inflammatory activity (percent inhibition of paw edema)” value in data set [1] (setting [9]) is 58 ± 1.66 %; in data set [1] (setting [10]), 41 ± 1.48 %. Further, the Percent analgesic activity in the data set on Wistar albino mice (setting [11]) worked out at 34 ± 1.74 %; in the data set on Wistar albino mice (setting [12]), 43 ± 1.72 %; in the data set on Wistar albino mice (setting [13]), 45 ± 1.45 %; with Wistar albino mice (setting [14]), 29 ± 1.69 %; in the data set with Wistar albino mice (setting [15]) it was 47 ± 1.96 %; in the data set on Wistar albino mice (setting [16]) it was 52 ± 1.67 %. For the same compound, the values for the Percent analgesic activity in the data set on Wistar albino mice (setting [17]) and in the data set with Wistar albino mice (setting [18]) were 56 ± 1.36 % and 44 ± 1.48 %, respectively. In the data set on Wistar albino mice, the “Analgesic activity (in words)” value is listed as “decreasing activity; also recorded: further decrease of activity”. In addition, the Ulcer index in data set [2] amounted to 0.78 ± 1.19.
